Measurements taken from patent US7341717B2, “Therapeutic targets for treatment of HCV infections, methods of treating HCV infections and compounds useful therefor” (priority 2001, dated 2008).

Legend:
[1] = tested on: HCV replicon (subgenomic HCV RNA, NS5a); assay: HCV replicon RNA (Northern blot) and NS5a protein (Western blot) levels in HuH7 replicon cell lines; assay type: cell-based, Hepatitis C virus; details: for effect like all-trans-retinoic acid (GI-GPx upregulation, reduction of HCV RNA and NS5a): alone or in combination with each other or with selenium or a selenium salt; for reduction of HCV load: replicon cells
Procedure: The HuH7 pcDNA3 control cells and the replicon cell lines 5-15, 11-7 and 9-13 were plated as described in legend to FIG. 1 and after three days (Day 0) treated for two (Day 2) and four days (Day 4) with 1000U/ml interferon α (IFN-α). Then, cultures were harvested and RNA was prepared. 10 μg of total RNA were used for Northern blot analysis. For detection of GI-GPx (A) Probe 1 was used (see FIG. 1). The membranes were stripped and successively hybridized with probes for PKR (B) and neomycin phosphotransferase (Neo)(C). […]
(§1) Western blot analysis was performed using an NS5a antibody (FIG. 5). Expression of the transduced GI-GPx cDNA was monitored with a GI-GPx-specific antiserum (FIG. 6).
(§2) Replicon cells were incubated with alpha interferon (IFN-α) for two and four days. Northern blot analyses were performed with 10 μg total RNA. […] Interferon had no effect on the expression of GI-GPx in mock transfected HuH7 cells (cf FIG. 4).
(§3) As a model system for HCV replication there were utilized three replicon cell lines provided by Prof. R. Bartenschlager (University of Heidelberg, Germany). Cultures were treated for various periods of time with all trans-retinoic acid (RA) for comparative purposes and the other agents selenium, selenium salts, Vitamin D3 and retinoids, like 9-cis-retinoic acid, C1-C10 alkyl esters of 9-cis-retinoic acid, C1-C10 alkyl amides of 9-cis-retinoic acid, N-(4-hydroxyphenyl) retinamide (4-HPR), 6-[3-(1-adamantyl)-4-hydroxyphenyl]-2-naphthalene carboxylic acid (CD437; AHPN) (obtained from Sigma), paraquat, 4-[E-2-(5,6,7,8-tetrahydro-5,5,8,8-tetramethyl-2-naphthalenyl)-1-propenyl]benzoic acid, 4-hydroxyphenylretinamide, and 4-[(5,6,7,8-tetrahydro-5,5,8,8-tetramethyl-2-naphtalenyl)carboxamido]benzoic acid.
(§4) Levels of GI-GPx protein expression were measured by Western Blotting using antibodies provided by Prof. Brigelius-Flohe (University of Potsdam, Germany), and RNA levels were measured by Northern blotting using GI-GPx-specific oligonucleotides as probes. Levels of HCV RNA were investigated by Northern Blotting using a DNA oligonucleotide complementary to the neomycin phosphotransferase gene as probe. Concentration of the viral protein NS5a was determined by Western Blotting with an NS5a-specific antibody (Biogenesis, UK).

[2] = tested on: HuH 9-13 replicon cells; assay: Paraquat sensitivity, Alamar Blue viability assay; assay type: cell-based, human; details: HuH 9-13, 24 hours, three independent experiments
Procedure: (§5) Cells were plated in 96-well microtiter plates (5×10^3 cells/0.35 cm^2) and after three days treated for 24 hours with the concentration of paraquat depicted. Cell viability was measured utilizing an Alamar-Blue assay and is reflected by relative fluorescence units (RFU) at 405 nm.
(§6) Replicon cell lines and control cells were incubated for 24 hours with various concentrations of paraquat (methylviologen), and viability of the cultures was measured using the Alamar Blue assay.
(§7) For quantification of the degree of cell death in cell culture we employed the viability assay based on the reduction of tetrazolium salt to formazan by mitochondrial dehydrogenase activity. The assay was performed in 96-well microtiter plates (Greiner, Frickenhausen, Germany) as described previously (T. Herget et al., 1998, J. Neurochem., 70: 47-58) but Alamar Blue (Roche Molecular Biochemicals, Germany) was used instead of MTT. The light absorbance at 405 nm of the medium including all factors but without cells was determined and subtracted from the absorption readings with cells. Eight wells per sample point were analyzed and each experiment was repeated independently at least three times.

[3] = tested on: HuH pcDNA3 control cells; assay: Paraquat sensitivity, Alamar Blue viability assay; assay type: cell-based, human; details: 24 hours, three independent experiments
Procedure: as §5, §6, §7

[4] = tested on: HuH 5-15 replicon cells; assay: Paraquat sensitivity, Alamar Blue viability assay; assay type: cell-based, human; details: HuH 5-15, 24 hours, three independent experiments
Procedure: as §5, §6, §7

[5] = tested on: HuH 11-7 replicon cells; assay: Paraquat sensitivity, Alamar Blue viability assay; assay type: cell-based, human; details: HuH 11-7, 24 hours, three independent experiments
Procedure: as §5, §6, §7

[6] = tested on: replicon cells; assay: Cytotoxic effects in replicon cells; assay type: cell-based, human
Description: As a model system for HCV replication there were utilized three replicon cell lines provided by Prof. R. Bartenschlager (University of Heidelberg, Germany).

[7] = tested on: GI-GPx; assay: GI-GPx RNA and protein expression in HuH7 replicon cell lines; assay type: cell-based, human
Procedure: (§8) The HuH7 pcDNA3 control cells and the replicon cell lines 5-15, 11-7 and 9-13 were plated as described in legend to FIG. 1 and after three days (Day 0) treated for two (Day 2) and four days (Day 4) with 1000U/ml interferon α (IFN-α). Then, cultures were harvested and RNA was prepared. 10 μg of total RNA were used for Northern blot analysis. For detection of GI-GPx (A) Probe 1 was used (see FIG. 1). The membranes were stripped and successively hybridized with probes for PKR (B) and neomycin phosphotransferase (Neo)(C).
as §1
The x-ray films were densitometrically scanned and the NS5a values compared with untransfected control cells (set as 100%) (FIG. 5) and the GI-GPx values compared with the maximum expression of the transduced GI-GPx cDNA obtained seven days post infection (set as 100%) (FIG. 6).
as §2, §3, §4

[8] = tested on: PKR (double strand RNA-dependent protein kinase); assay: Transcription of PKR in replicon cells; assay type: cell-based, human
Procedure: as §8
This fact implies that downregulation of HCV was promoted firstly by activation of the GI-GPx gene on transcriptional level by retinoic acid and secondly by the synthesis of selenoprotein(s) for which sodium selenite was needed. Indeed it could be shown that all-trans-retinoic acid-induced downregulation of HCV is independent of the innate immune response induced by interferon.

[9] = tested on: GI-GPx; assay: GI-GPx expression in mock transfected HuH7 cells; assay type: cell-based, human
Procedure: as §8, §2

Row | Compound | effect like all-trans-retinoic acid (GI-GPx upregulation, reduction of HCV RNA and NS5a) [1] | reduction of HCV load [1] | other results
1 | CC1(C)CCC(C)(C)c2cc(C(=O)Nc3ccc(C(=O)O)cc3)ccc21 [4-[(5,6,7,8-tetrahydro-5,5,8,8-tetramethyl-2-naphthalenyl)carboxamido]benzoic acid] | showed a similar effect | capable of reducing HCV load | 
2 | CCOC(=O)/C=C(C)/C=C/C=C(C)/C=C/c1c(C)cc(OC)c(C)c1C [etretinate] | showed a similar effect | capable of reducing HCV load | 
3 | CC1=C(/C=C/C(C)=C/C=C/C(C)=C/C(=O)Nc2ccc(O)cc2)C(C)(C)CCC1 [4-HPR, N-(4-hydroxyphenyl) retinamide] | showed a similar effect | capable of reducing HCV load | 
4 | C[n+]1ccc(-c2cc[n+](C)cc2)cc1 [paraquat] | showed a similar effect | capable of reducing HCV load | LD50 for paraquat [2]: 260 ± 50 µM; LD50 for paraquat [3]: 1250 ± 120 µM; LD50 for paraquat [4]: 270 ± 75 µM; LD50 for paraquat [5]: 310 ± 65 µM
5 | CC1=C(/C=C/C(C)=C\C=C\C(C)=C\C(=O)O)C(C)(C)CCC1 [9-cis retinoic acid] | showed a similar effect | capable of reducing HCV load | 
6 | O=[Se](O)O [sodium selenite] |  |  | severe cytotoxic effects ([6]; alone or both in combination): neither observed
7 | O=C(O)c1ccc2cc(-c3ccc(O)c(C45CC6CC(CC(C6)C4)C5)c3)ccc2c1 [CD437, 6-[3-(1-adamantyl)-4-hydroxyphenyl]-2-naphthalene carboxylic acid] | showed a similar effect | capable of reducing HCV load | 
8 | CC1=C(/C=C/C(C)=C/C=C/C(C)=C/C(=O)O)C(C)(C)CCC1 [all-trans-retinoic acid] |  |  | up-regulation of GI-GPx, RNA and protein level ([7]; 1 μM, seven days of incubation): three- to ten-fold; effect on GI-GPx expression ([7]; 1 μM, three days): hardly any effect; GI-GPx RNA and protein ([7]; six days): upregulation; toxic effects ([6]; six days, in the presence of selenium or a selenium salt): absence of toxic effects; induction of transcription of PKR [8]: did not induce; downregulation of subgenomic HCV RNA and viral protein NS5a ([1]; 1 μM, seven days, depending on the cell line): two- to five-fold; effect on HCV expression ([1]; 1 μM, three days): hardly any effect; reduction of HCV RNA and HCV NS5a protein ([1]; six days, in the presence of selenium or a selenium salt like sodium selenite): two-to five-fold
9 | CC1=C(/C=C/C(C)=C/C=C/C(C)=C\C(=O)O)C(C)(C)CCC1 [13-cis retinoic acid] | showed a similar effect | capable of reducing HCV load | 
10 | C/C(=C\c1ccc(C(=O)O)cc1)c1ccc2c(c1)C(C)(C)CCC2(C)C [4-[E-2-(5,6,7,8-tetrahydro-5,5,8,8-tetramethyl-2-naphthalenyl)-1-propenyl]benzoic acid] | showed a similar effect | capable of reducing HCV load | 
11 | CC1=C(/C=C/C(C)=C/C=C/C(C)=C/CO)C(C)(C)CCC1 [retinol] | showed a similar effect | capable of reducing HCV load | 
12 | IFN-α |  |  | GI-GPx expression [9]: no effect; GI-GPx expression ([7]; replicon cells, within four days of interferon treatment, 1000 U/ml): up-regulated; HCV-replicon RNA and HCV protein NS5a level ([1]; 1000 U/ml, two and four days): time- and dose-dependent down-regulation
13 | CC1=C(/C=C/C(C)=C/C=C/C(C)=C/C=O)C(C)(C)CCC1 [retinoic acid adlehyde] | showed a similar effect | capable of reducing HCV load | 
